According to US11254663B2 (BRISTOL-MYERS SQUIBB COMPANY, priority 2019, dated 2022):

biological target: FXR (Homo sapiens (Human), UniProt Q96RI1); test: transient human FXR/Gal4-luciferase reporter assay; assay type: cell-based; conditions: not given
How it was run: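 HEK293 cells stably carrying a 5×Gal4 response element–firefly luciferase reporter were transiently transfected overnight with a Gal4 DBD–human FXR LBD fusion plasmid. Compound was added in DMSO and cells were incubated overnight at 37 °C, 5% CO2. Activity was read as Steady-Glo luminescence.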

FXR, sequence (Q96RI1 262-486): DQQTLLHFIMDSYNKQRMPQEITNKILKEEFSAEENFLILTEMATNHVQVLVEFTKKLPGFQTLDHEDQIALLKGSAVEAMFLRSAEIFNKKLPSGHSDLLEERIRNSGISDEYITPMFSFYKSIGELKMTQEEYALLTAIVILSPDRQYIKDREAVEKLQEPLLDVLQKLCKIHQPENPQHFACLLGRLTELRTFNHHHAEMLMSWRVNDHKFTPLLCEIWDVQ

Structure (SMILES) | EC50 [nM]
CC(C)(O)c1ccc(-c2cccc(N(CC34CCC(c5noc(C(C)(C)F)n5)(CC3)CC4)C(=O)NC3CCS(=O)(=O)CC3)c2)cc1 [Example 644, 3-(1,1-dioxidotetrahydro-2H-thiopyran-4-yl)-1-((4-(5-(2-fluoropropan-2-yl)-1,2,4-oxadiazol-3-yl)bicyclo[2.2.2]octan-1-yl)methyl)-1-(4′-(2-hydroxypropan-2-yl)-[1,1′-biphenyl]-3-yl)urea] | 743
CC(C)(C)c1nc(C23CCC(CN(C(=O)C45CC(F)(C4)C5)c4cc(-c5ccc6[nH]c(=O)oc6c5)ccn4)(CC2)CC3)no1 [Example 540, N-((4-(5-(tert-butyl)-1,2,4-oxadiazol-3-yl)bicyclo[2.2.2]octan-1-yl)methyl)-3-fluoro-N-(4-(2-oxo-2,3-dihydrobenzo[d]oxazol-6-yl)pyridin-2-yl)bicyclo[1.1.1]pentane-1-carboxamide] | 71
CC(C)(C)c1nc(C23CCC(CN(C(=O)C4CC(O)(C(F)(F)F)C4)c4cccc(-c5ccc(OC(F)F)cc5)c4)(CC2)CC3)no1 [Example 516, (1S,3S)—N-((4-(5-(tert-butyl)-1,2,4-oxadiazol-3-yl)bicyclo[2.2.2]octan-1-yl)methyl)-N-(4′-(difluoromethoxy)-[1,1′-biphenyl]-3-yl)-3-hydroxy-3-(trifluoromethyl)cyclobutane-1-carboxamide] | 94
CC(F)(F)c1nc(C23CCC(CN(C(=O)C45CC(F)(C4)C5)c4cccc(-c5cnc6nc(C7CC7)sc6c5)c4)(CC2)CC3)no1 [Example 530, N-(3-(2-cyclopropylthiazolo[4,5-b]pyridin-6-yl)phenyl)-N-((4-(5-(1,1-difluoroethyl)-1,2,4-oxadiazol-3-yl)bicyclo[2.2.2]octan-1-yl)methyl)-3-fluorobicyclo[1.1.1]pentane-1-carboxamide] | 145

same assay, conditions: Gal4-hFXR fusion construct, HEK293 reporter cells; response relative to 8 μM GW-4064

Structure (SMILES) | EC50 [nM]
COc1ccc(-c2cccc(N(CC34CCC(c5nc(C(C)C)no5)(CC3)CC4)C(=O)C34CC(F)(C3)C4)c2)cn1 [Example 382, 3-fluoro-N-((4-(3-isopropyl-1,2,4-oxadiazol-5-yl)bicyclo[2.2.2]octan-1-yl)methyl)-N-(3-(6-methoxypyridin-3-yl)phenyl)bicyclo[1.1.1]pentane-1-carboxamide] | 98
N#Cc1cc2c(nc1-c1cccc(N(CC34CCC(c5nc(C6CC6)no5)(CC3)CC4)C(=O)C34CC(F)(C3)C4)c1)CCOC2 [Example 328, N-(3-(3-cyano-7,8-dihydro-5H-pyrano[4,3-b]pyridin-2-yl)phenyl)-N-((4-(3-cyclopropyl-1,2,4-oxadiazol-5-yl)bicyclo[2.2.2]octan-1-yl)methyl)-3-fluorobicyclo[1.1.1]pentane-1-carboxamide] | 339
CC(C)(C)c1nc(C23CCC(CN(C(=O)C45CC(F)(C4)C5)c4cccc(-c5ccc6c(c5)OC(F)(F)O6)c4)(CC2)CC3)no1 [Example 457, N-((4-(5-(tert-butyl)-1,2,4-oxadiazol-3-yl)bicyclo[2.2.2]octan-1-yl)methyl)-N-(3-(2,2-difluorobenzo[d][1,3]dioxol-5-yl)phenyl)-3-fluorobicyclo[1.1.1]pentane-1-carboxamide] | 144
Cc1nc2ccc(-c3cccc(N(CC45CCC(c6nc(C7CC7)no6)(CC4)OC5)C(=O)C45CC(F)(C4)C5)c3)cc2s1 [Example 564, N-((1-(3-cyclopropyl-1,2,4-oxadiazol-5-yl)-2-oxabicyclo[2.2.2]octan-4-yl)methyl)-3-fluoro-N-(3-(2-methylbenzo[d]thiazol-6-yl)phenyl)bicyclo[1.1.1]pentane-1-carboxamide] | 207
CC(C)(O)c1ccc(-c2nccc(N(CC34CCC(c5noc(C(C)(C)F)n5)(CC3)CC4)C(=O)OC(C)(C)C(F)(F)F)n2)cc1 [Example 635, 1,1,1-trifluoro-2-methylpropan-2-yl ((4-(5-(2-fluoropropan-2-yl)-1,2,4-oxadiazol-3-yl)bicyclo[2.2.2]octan-1-yl)methyl)(2-(4-(2-hydroxypropan-2-yl)phenyl)pyrimidin-4-yl) carbamate] | 1280
CCOc1ccc(-c2cccc(N(CC34CCC(c5nc(C6CC6)no5)(CC3)CC4)C(=O)C34CC(F)(C3)C4)c2)cc1 [Example 290, N-((4-(3-cyclopropyl-1,2,4-oxadiazol-5-yl)bicyclo[2.2.2]octan-1-yl)methyl)-N-(4′-ethoxy-[1,1′-biphenyl]-3-yl)-3-fluorobicyclo[1.1.1]pentane-1-carboxamide] | 60
O=C(N(CC12CCC(c3nc(C4CC4)no3)(CC1)CC2)c1cccc(-c2ccnc(OC3CC3)n2)c1)C12CC(F)(C1)C2 [Example 337, N-(3-(2-cyclopropoxypyrimidin-4-yl)phenyl)-N-((4-(3-cyclopropyl-1,2,4-oxadiazol-5-yl)bicyclo[2.2.2]octan-1-yl)methyl)-3-fluorobicyclo[1.1.1]pentane-1-carboxamide] | 380
CC(C)Oc1ccc(-c2cc(N(CC34CCC(c5noc(C6(F)CC6)n5)(CC3)CC4)C(=O)NC(C)(C)C)ccc2F)cc1 [Example 586, 3-(tert-butyl)-1-(6-fluoro-4′-isopropoxy-[1,1′-biphenyl]-3-yl)-1-((4-(5-(1-fluorocyclopropyl)-1,2,4-oxadiazol-3-yl)bicyclo[2.2.2]octan-1-yl)methyl)urea] | 36
O=C(N(CC12CCC(c3nc(C4CC4)no3)(CC1)CC2)c1cccc(-c2cccc(C(F)(F)F)c2)c1)C12CC(F)(C1)C2 [Example 252, N-((4-(3-cyclopropyl-1,2,4-oxadiazol-5-yl)bicyclo[2.2.2]octan-1-yl)methyl)-3-fluoro-N-(3′-(trifluoromethyl)-[1,1′-biphenyl]-3-yl)bicyclo[1.1.1]pentane-1-carboxamide] | 833
O=C(N(CC12CCC(c3cc(C(F)(F)F)ccn3)(CC1)CC2)c1cccc(-c2ccc(NS(=O)(=O)C3CC3)cc2)c1)C12CC(F)(C1)C2 [Example 354, N-(4′-(Cyclopropanesulfonamido)-[1,1′-biphenyl]-3-yl)-3-fluoro-N-((4-(4-(trifluoromethyl)pyridin-2-yl)bicyclo[2.2.2]octan-1-yl)methyl)bicyclo[1.1.1]pentane-1-carboxamide] | 489
Cc1ccc(-c2cccc(N(CC34CCC(c5nc(C6CC6)no5)(CC3)CC4)C(=O)C34CC(F)(C3)C4)c2)nc1 [Example 325, N-((4-(3-cyclopropyl-1,2,4-oxadiazol-5-yl)bicyclo[2.2.2]octan-1-yl)methyl)-3-fluoro-N-(3-(5-methylpyridin-2-yl)phenyl)bicyclo[1.1.1]pentane-1-carboxamide] | 24
CC(C)(F)c1nc(C23CCC(CN(c4cccc(C5=CC6(C5)CC(C(C)(C)O)C6)c4)C(=O)[C@H]4C[C@](O)(C(F)(F)F)C4)(CC2)CC3)no1 (stereo partly drawn) [Example 590, (cis)-N-((4-(5-(2-fluoropropan-2-yl)-1,2,4-oxadiazol-3-yl)bicyclo[2.2.2]octan-1-yl)methyl)-3-hydroxy-N-(3-(6-(2-hydroxypropan-2-yl)spiro[3.3]hept-1-en-2-yl)phenyl)-3-(trifluoromethyl)cyclobutane-1-carboxamide] | 11
CCOc1ncc(-c2cc(N(CC34CCC(c5noc(C(C)(C)C)n5)(CC3)CC4)C(=O)C34CC(F)(C3)C4)ccn2)cn1 [Example 596, N-((4-(5-(tert-butyl)-1,2,4-oxadiazol-3-yl)bicyclo[2.2.2]octan-1-yl)methyl)-N-(2-(2-ethoxypyrimidin-5-yl)pyridin-4-yl)-3-fluorobicyclo[1.1.1]pentane-1-carboxamide] | 321
CC(C)(O)c1ccc(-c2cc(N(CC34CCC(c5nc(C6CC6)no5)(CC3)CC4)C(=O)OC(C)(C)C(F)(F)F)ncc2F)cc1F [Example 618, 1,1,1-trifluoro-2-methylpropan-2-yl((4-(3-cyclopropyl-1,2,4-oxadiazol-5-yl)bicyclo[2.2.2]octan-1-yl)methyl)(5-fluoro-4-(3-fluoro-4-(2-hydroxypropan-2-yl)phenyl)pyridin-2-yl) carbamate] | 49
CCOc1ccc(-c2cccc(N(CC34CCC(c5noc(C(C)C)n5)(CC3)CC4)C(=O)C34CC(F)(C3)C4)c2)cn1 [Example 432, N-(3-(6-ethoxypyridin-3-yl)phenyl)-3-fluoro-N-((4-(5-isopropyl-1,2,4-oxadiazol-3-yl)bicyclo[2.2.2]octan-1-yl)methyl)bicyclo[1.1.1]pentane-1-carboxamide] | 51
COc1cc(-c2cccc(N(CC34CCC(c5nnc(C)o5)(CC3)CC4)C(=O)C34CC(F)(C3)C4)c2)ccn1 [Example 230, 3-Fluoro-N-(3-(2-methoxypyridin-4-yl)phenyl)-N-((4-(5-methyl-1,3,4-oxadiazol-2-yl)bicyclo[2.2.2]octan-1-yl)methyl)bicyclo[1.1.1]pentane-1-carboxamide] | 988
CC(C)c1noc(C23CCC(CN(C(=O)C45CC(F)(C4)C5)c4cccc(-c5ccc(NS(=O)(=O)C(F)(F)F)cc5)c4)(CC2)CC3)n1 [Example 390, 3-fluoro-N-((4-(3-isopropyl-1,2,4-oxadiazol-5-yl)bicyclo[2.2.2]octan-1-yl)methyl)-N-(4′-((trifluoromethyl)sulfonamido)-[1,1′-biphenyl]-3-yl)bicyclo[1.1.1]pentane-1-carboxamide] | 96
CC(=O)Nc1cn2nc(-c3cccc(N(CC45CCC(c6nc(C7CC7)no6)(CC4)CC5)C(=O)C45CC(F)(C4)C5)c3)ccc2n1 [Example 336, N-(3-(2-acetamidoimidazo[1,2-b]pyridazin-6-yl)phenyl)-N-((4-(3-cyclopropyl-1,2,4-oxadiazol-5-yl)bicyclo[2.2.2]octan-1-yl)methyl)-3-fluorobicyclo[1.1.1]pentane-1-carboxamide] | 1230
COc1cc(-c2ccnc(N(CC34CCC(c5nc(C6CC6)no5)(CC3)CC4)C(=O)C34CC(F)(C3)C4)c2)ccn1 [Example 340, N-((4-(3-cyclopropyl-1,2,4-oxadiazol-5-yl)bicyclo[2.2.2]octan-1-yl)methyl)-3-fluoro-N-(2′-methoxy-[4,4′-bipyridin]-2-yl)bicyclo[1.1.1]pentane-1-carboxamide] | 398
